Laboratory results: patent US12497394B2, “Fused-cyclic pyrazolone formamide compound and preparation method therefor, pharmaceutical composition and use thereof” (SHANGHAI INSTITUTE OF MATERIA MEDICA, CHINESE ACADEMY OF …, priority 2018, dated 2025)
Like-named read-outs stand apart in the source and are kept apart here.

How the values were obtained:
RON/MSTIR = RON/MSTIR (Homo sapiens, UniProt Q04912); experiment: Kinase profile screen: RON/MSTIR; assay type: biochemical; details: 50 nM
Source text: (§1) Experimental Example 2: Study on the Selectivity of the Kinase Profile of the Compound Due to compound's potent inhibitory activity against AXL, we selected one of the compounds, DC621044, to screen 369 kinase profiles in order to investigate the compound's selectivity to the kinase profile.

TYRO3/SKY = TYRO3/SKY (Homo sapiens, UniProt Q06418); experiment: Kinase profile screen: TYRO3/SKY; assay type: biochemical; details: 50 nM
Source text: as §1

MER = MER (Homo sapiens, UniProt Q12866); experiment: Kinase profile screen: MER; assay type: biochemical; details: 50 nM
Source text: as §1

TRKA = TRKA (Homo sapiens, UniProt P04629); experiment: Kinase profile screen: TRKA; assay type: biochemical; details: 50 nM
Source text: as §1

AXL = AXL (Homo sapiens, UniProt P30530); experiment: Kinase profile screen: AXL; assay type: biochemical; details: 50 nM
Source text: as §1

FYN = FYN (Homo sapiens, UniProt P06241); experiment: Kinase profile screen: FYN; assay type: biochemical; details: 50 nM
Source text: as §1

c-MET = c-MET (Homo sapiens, UniProt P08581); experiment: Kinase profile screen: c-MET; assay type: biochemical; details: 50 nM
Source text: as §1

TRKC = TRKC (Homo sapiens, UniProt Q16288); experiment: Kinase profile screen: TRKC; assay type: biochemical; details: 50 nM
Source text: as §1

HIPK4 = HIPK4 (Homo sapiens, UniProt Q8NE63); experiment: Kinase profile screen: HIPK4; assay type: biochemical; details: 50 nM
Source text: as §1

c-Src = c-Src (Homo sapiens, UniProt P12931); experiment: Kinase profile screen: c-Src; assay type: biochemical; details: 50 nM
Source text: as §1

BLK = BLK (Homo sapiens, UniProt P51451); experiment: Kinase profile screen: BLK; assay type: biochemical; details: 50 nM
Source text: as §1

FLT3 = FLT3 (Homo sapiens, UniProt P36888); experiment: Kinase profile screen: FLT3; assay type: biochemical; details: 50 nM
Source text: as §1

PLK4/SAK = PLK4/SAK (Homo sapiens, UniProt O00444); experiment: Kinase profile screen: PLK4/SAK; assay type: biochemical; details: 50 nM
Source text: as §1

BaF3/TEL-AXL cells = experiment: Proliferation of BaF3/TEL-AXL cells; assay type: cell-based
Source text: Experimental Example 4: Effect of the Compound on the Proliferation Effect of BaF3/TEL-AXL Cells
Based on the above-mentioned enzyme activity research results, we further explored the effect of the compound on cell proliferation mediated by receptor tyrosine kinase AXL.

FRK/PTK5 = FRK/PTK5 (Homo sapiens, UniProt P42685); experiment: Kinase profile screen: FRK/PTK5; assay type: biochemical; details: 50 nM
Source text: as §1

EPHA6 = EPHA6 (Homo sapiens, UniProt Q9UF33); experiment: Kinase profile screen: EPHA6; assay type: biochemical; details: 50 nM
Source text: as §1

BRK = BRK (Homo sapiens, UniProt Q13882); experiment: Kinase profile screen: BRK; assay type: biochemical; details: 50 nM
Source text: as §1

FGR = FGR (Homo sapiens, UniProt P09769); experiment: Kinase profile screen: FGR; assay type: biochemical; details: 50 nM
Source text: as §1

ASK1/MAP3K5 = ASK1/MAP3K5 (Homo sapiens, UniProt Q99683); experiment: Kinase profile screen: ASK1/MAP3K5; assay type: biochemical; details: 50 nM
Source text: as §1

DDR1 = DDR1 (Homo sapiens, UniProt Q08345); experiment: Kinase profile screen: DDR1; assay type: biochemical; details: 50 nM
Source text: as §1

MLK2/MAP3K10 = MLK2/MAP3K10 (Homo sapiens, UniProt Q02779); experiment: Kinase profile screen: MLK2/MAP3K10; assay type: biochemical; details: 50 nM
Source text: as §1

TRKB = TRKB (Homo sapiens, UniProt Q16620); experiment: Kinase profile screen: TRKB; assay type: biochemical; details: 50 nM
Source text: as §1

Sequence of HIPK4 (Q8NE63 whole entry, species assumed): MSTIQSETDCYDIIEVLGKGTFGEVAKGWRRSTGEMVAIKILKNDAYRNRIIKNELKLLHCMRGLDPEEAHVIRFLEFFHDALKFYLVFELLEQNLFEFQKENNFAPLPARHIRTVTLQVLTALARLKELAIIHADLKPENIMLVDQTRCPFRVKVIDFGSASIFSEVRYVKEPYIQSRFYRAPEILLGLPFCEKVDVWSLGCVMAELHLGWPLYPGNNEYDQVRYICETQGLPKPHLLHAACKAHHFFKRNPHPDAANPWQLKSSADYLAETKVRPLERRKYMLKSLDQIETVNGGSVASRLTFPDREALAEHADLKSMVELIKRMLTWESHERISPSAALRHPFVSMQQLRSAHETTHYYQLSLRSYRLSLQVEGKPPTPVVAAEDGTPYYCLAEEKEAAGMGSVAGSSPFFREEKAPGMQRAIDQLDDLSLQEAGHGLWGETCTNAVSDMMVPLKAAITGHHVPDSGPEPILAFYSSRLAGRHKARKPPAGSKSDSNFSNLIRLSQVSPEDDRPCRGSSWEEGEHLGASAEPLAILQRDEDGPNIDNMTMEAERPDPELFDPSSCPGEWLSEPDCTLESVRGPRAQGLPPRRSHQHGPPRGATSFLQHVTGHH
Sequence of FGR (P09769 whole entry, species assumed): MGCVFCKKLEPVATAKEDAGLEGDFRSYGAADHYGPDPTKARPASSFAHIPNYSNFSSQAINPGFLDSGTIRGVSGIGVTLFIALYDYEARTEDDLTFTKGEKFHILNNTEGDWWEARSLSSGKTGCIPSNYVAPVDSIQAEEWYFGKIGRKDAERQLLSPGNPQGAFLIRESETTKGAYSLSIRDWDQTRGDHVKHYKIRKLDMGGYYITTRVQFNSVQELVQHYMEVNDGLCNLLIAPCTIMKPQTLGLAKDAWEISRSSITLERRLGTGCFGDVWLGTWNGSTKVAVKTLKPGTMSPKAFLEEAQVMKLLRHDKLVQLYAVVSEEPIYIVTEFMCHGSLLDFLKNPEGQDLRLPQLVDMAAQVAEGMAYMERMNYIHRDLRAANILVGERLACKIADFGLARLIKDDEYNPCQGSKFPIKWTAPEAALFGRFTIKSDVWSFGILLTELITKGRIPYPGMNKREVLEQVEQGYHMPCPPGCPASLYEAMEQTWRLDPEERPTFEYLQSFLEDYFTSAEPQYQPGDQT
Sequence of c-MET (P08581 25-1390): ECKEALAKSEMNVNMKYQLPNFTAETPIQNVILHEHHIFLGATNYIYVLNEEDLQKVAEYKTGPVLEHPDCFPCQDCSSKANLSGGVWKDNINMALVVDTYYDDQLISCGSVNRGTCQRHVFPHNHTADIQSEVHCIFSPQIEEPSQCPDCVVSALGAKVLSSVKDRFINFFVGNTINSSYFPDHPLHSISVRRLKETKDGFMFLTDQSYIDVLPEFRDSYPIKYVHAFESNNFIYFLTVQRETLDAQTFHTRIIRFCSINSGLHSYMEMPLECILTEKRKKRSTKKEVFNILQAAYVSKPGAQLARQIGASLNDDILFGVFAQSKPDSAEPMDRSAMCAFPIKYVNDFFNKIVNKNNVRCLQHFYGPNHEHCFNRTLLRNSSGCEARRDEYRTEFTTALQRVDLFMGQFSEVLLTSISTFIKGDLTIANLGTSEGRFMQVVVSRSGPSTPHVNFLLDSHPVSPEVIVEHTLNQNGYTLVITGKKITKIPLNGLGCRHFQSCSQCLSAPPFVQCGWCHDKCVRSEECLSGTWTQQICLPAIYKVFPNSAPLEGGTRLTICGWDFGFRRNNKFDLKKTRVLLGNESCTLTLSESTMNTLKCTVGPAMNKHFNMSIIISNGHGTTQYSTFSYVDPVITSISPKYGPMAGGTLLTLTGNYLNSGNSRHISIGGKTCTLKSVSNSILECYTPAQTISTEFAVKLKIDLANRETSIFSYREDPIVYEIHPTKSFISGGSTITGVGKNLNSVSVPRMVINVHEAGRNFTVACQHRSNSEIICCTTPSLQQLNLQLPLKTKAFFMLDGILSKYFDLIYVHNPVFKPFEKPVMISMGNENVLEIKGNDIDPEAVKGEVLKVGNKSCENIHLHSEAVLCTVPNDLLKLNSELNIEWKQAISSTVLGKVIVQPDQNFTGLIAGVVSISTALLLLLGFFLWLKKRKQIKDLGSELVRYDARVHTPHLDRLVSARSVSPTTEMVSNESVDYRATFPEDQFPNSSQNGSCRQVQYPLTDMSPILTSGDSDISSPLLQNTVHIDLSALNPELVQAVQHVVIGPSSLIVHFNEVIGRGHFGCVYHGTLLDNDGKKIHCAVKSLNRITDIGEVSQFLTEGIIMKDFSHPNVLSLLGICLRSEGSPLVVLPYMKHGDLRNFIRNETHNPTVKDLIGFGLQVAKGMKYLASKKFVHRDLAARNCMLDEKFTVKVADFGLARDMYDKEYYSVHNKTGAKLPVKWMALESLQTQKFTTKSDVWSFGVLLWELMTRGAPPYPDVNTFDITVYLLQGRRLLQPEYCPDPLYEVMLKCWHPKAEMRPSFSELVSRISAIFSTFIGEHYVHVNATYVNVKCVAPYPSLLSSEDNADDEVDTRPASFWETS
Sequence of TRKA (P04629 33-796, species assumed): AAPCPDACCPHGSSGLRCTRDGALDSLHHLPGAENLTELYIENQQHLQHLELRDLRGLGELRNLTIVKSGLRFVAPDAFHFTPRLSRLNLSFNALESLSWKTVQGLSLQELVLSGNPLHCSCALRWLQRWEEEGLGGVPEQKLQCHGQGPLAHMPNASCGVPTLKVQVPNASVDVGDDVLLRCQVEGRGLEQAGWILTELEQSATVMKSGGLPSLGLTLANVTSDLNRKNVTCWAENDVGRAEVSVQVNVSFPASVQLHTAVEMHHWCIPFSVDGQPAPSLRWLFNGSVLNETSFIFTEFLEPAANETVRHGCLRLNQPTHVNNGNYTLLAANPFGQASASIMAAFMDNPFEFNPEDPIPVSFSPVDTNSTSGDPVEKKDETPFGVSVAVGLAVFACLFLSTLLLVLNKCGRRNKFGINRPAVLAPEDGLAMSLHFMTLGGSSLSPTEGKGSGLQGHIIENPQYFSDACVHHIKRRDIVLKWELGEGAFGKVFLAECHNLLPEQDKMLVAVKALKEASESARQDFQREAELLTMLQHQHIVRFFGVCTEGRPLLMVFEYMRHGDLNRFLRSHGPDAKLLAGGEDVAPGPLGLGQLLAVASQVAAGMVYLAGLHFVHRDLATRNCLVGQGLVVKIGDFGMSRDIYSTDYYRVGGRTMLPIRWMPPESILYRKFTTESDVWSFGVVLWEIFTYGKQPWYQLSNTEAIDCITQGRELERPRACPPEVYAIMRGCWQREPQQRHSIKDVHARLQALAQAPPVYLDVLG
Sequence of FYN (P06241 whole entry, species assumed): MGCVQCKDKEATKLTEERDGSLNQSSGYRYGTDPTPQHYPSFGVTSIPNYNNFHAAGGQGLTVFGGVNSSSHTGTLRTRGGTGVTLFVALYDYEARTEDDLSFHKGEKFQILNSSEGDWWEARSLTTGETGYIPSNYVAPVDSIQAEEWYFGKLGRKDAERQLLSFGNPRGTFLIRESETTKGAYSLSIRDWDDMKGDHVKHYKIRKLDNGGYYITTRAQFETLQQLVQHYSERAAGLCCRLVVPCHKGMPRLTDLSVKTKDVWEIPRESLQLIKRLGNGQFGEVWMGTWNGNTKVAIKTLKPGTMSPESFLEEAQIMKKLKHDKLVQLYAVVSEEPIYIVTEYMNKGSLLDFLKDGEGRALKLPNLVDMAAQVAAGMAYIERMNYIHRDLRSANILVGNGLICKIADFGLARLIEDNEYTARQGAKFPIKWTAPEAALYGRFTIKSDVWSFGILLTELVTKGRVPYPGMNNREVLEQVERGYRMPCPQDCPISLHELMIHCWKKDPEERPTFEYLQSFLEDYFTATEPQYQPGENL
Sequence of TRKB (Q16620 32-822, species assumed): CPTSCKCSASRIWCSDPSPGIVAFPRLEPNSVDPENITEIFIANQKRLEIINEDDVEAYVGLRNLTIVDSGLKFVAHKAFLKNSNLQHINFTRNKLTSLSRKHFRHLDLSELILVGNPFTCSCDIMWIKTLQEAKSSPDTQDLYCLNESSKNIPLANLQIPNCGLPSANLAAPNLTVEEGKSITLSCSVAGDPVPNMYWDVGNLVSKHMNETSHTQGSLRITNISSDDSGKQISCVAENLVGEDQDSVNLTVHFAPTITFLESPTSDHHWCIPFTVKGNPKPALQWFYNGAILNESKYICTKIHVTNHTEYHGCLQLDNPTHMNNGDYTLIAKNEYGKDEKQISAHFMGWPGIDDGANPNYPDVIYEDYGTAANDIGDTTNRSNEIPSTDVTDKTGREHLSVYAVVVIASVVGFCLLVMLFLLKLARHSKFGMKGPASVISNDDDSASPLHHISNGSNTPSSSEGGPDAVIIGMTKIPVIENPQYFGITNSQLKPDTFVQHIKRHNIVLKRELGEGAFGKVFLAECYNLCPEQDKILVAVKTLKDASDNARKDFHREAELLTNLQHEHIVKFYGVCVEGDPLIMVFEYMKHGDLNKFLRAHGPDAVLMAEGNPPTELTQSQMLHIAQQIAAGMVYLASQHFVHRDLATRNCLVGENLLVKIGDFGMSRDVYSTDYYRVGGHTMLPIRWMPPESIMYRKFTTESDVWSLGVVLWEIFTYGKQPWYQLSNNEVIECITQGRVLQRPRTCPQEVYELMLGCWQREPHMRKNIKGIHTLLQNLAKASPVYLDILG
Sequence of BRK (Q13882 whole entry, species assumed): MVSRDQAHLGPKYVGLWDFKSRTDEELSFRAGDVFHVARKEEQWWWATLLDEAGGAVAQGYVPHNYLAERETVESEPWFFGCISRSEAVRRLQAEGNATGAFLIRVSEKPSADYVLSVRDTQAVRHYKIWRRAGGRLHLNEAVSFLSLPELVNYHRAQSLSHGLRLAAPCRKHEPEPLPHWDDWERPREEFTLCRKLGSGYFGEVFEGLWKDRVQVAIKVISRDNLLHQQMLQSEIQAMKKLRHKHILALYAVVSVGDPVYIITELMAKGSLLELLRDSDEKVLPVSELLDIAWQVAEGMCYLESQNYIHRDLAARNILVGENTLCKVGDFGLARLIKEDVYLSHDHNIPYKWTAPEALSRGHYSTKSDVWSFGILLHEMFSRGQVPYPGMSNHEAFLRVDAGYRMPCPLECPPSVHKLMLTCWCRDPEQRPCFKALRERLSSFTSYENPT

inhibition at 0.05 µM (RON/MSTIR; the first time): 25.9% | inhibition at 0.05 µM (RON/MSTIR; the second time): 27.2% | inhibition at 0.05 µM (TYRO3/SKY; the first time): 41% | inhibition at 0.05 µM (TYRO3/SKY; the second time): 41.2% | inhibition at 0.05 µM (MER; the first time): 99.4% | inhibition at 0.05 µM (MER; the second time): 99.5% | inhibition at 0.05 µM (TRKA; the first time): 59.2% | inhibition at 0.05 µM (TRKA; the second time): 60.3% | inhibition at 0.05 µM (AXL; the first time): 94.6% | inhibition at 0.05 µM (AXL; the second time): 95.2% | inhibition at 0.05 µM (FYN; the first time): 22.4% | inhibition at 0.05 µM (FYN; the second time): 27.7% | inhibition at 0.05 µM (c-MET; the first time): 98.6% | inhibition at 0.05 µM (c-MET; the second time): 99% | inhibition at 0.05 µM (TRKC; the first time): 23.8% | inhibition at 0.05 µM (TRKC; the second time): 24.1% | inhibition at 0.05 µM (HIPK4; the first time): 77.2% | inhibition at 0.05 µM (HIPK4; the second time): 77.2% | inhibition at 0.05 µM (c-Src; the first time): 20% | inhibition at 0.05 µM (c-Src; the second time): 21% | inhibition at 0.05 µM (BLK; the first time): 29.5% | inhibition at 0.05 µM (BLK; the second time): 29.9% | inhibition at 0.05 µM (FLT3; the first time): 28% | inhibition at 0.05 µM (FLT3; the second time): 29.3% | inhibition at 0.05 µM (PLK4/SAK; the first time): 27.2% | inhibition at 0.05 µM (PLK4/SAK; the second time): 29.8% | inhibition at 0.05 µM (FRK/PTK5; the first time): 17.1% | inhibition at 0.05 µM (FRK/PTK5; the second time): 17.7% | inhibition at 0.05 µM (EPHA6; the first time): 57.3% | inhibition at 0.05 µM (EPHA6; the second time): 57.8% | inhibition at 0.05 µM (BRK; the first time): 18.9% | inhibition at 0.05 µM (BRK; the second time): 19.4% | inhibition at 0.05 µM (FGR; the first time): 41.2% | inhibition at 0.05 µM (FGR; the second time): 41.2% | inhibition at 0.05 µM (ASK1/MAP3K5; the first time): 22.5% | inhibition at 0.05 µM (ASK1/MAP3K5; the second time): 23.5% | inhibition at 0.05 µM (DDR1; the first time): 64.1% | inhibition at 0.05 µM (DDR1; the second time): 64.2% | inhibition at 0.05 µM (MLK2/MAP3K10; the first time): 22.4% | inhibition at 0.05 µM (MLK2/MAP3K10; the second time): 23.9% | inhibition at 0.05 µM (TRKB; the first time): 52.1% | inhibition at 0.05 µM (TRKB; the second time): 52.2%
SMILES: COCCOc1cc2ncnc(Oc3ccc(NC(=O)c4c5n(n(-c6ccc(F)cc6)c4=O)CCCC5)cc3F)c2cc1OCCOC [DC621044, N-(4-((6,7-bis(2-methoxyethoxy)quinazolin-4-yl)oxy)-3-fluorophenyl)-1-(4-fluorophenyl)-2-oxo-1,2,4,5,6,7-hexahydropyrazolo[1,5-a]pyridine-3-formamide]
BaF3/TEL-AXL proliferation Inhibitory rate (%) (BaF3/TEL-AXL cells; 1 nM, two values per compound, 0.001 µM): 64.2% | BaF3/TEL-AXL proliferation Inhibitory rate (%) (BaF3/TEL-AXL cells; 10 nM, two values per compound, 0.01 µM): 75.9% | BaF3/TEL-AXL proliferation Inhibitory rate (%) (BaF3/TEL-AXL cells; 100 nM, two values per compound, 0.1 µM): 88.2% | inhibition at 0.001 µM (BaF3/TEL-AXL cells; BaF3/TEL-AXL, 1 nM, two values per compound, read-out: BaF3/TEL-AXL proliferation Inhibitory rate (%)): 78.9% | inhibition at 0.01 µM (BaF3/TEL-AXL cells; BaF3/TEL-AXL, 10 nM, two values per compound, read-out: BaF3/TEL-AXL proliferation Inhibitory rate (%)): 79.8% | inhibition at 0.1 µM (BaF3/TEL-AXL cells; BaF3/TEL-AXL, 100 nM, two values per compound, read-out: BaF3/TEL-AXL proliferation Inhibitory rate (%)): 85.9% | inhibition at 0.001 µM (BaF3/TEL-AXL cells; BaF3/TEL-AXL, concentration of 1 nM, read-out: inhibited the proliferation of BaF3/TEL-AXL cells): > 70%
